Experimental findings from patent publication US5298503A, “N-(isoquinolin-5-ylsulphonyl) azacycloalkanes” (Adir et Compagnie, priority 1991, dated 1994) are described below.

Structures can show the parent of a compound that is named as a salt.

For one assay, the system named is rat aortas. Nature of the assay: Anti-vasoconstrictive activity in physiological medium: contraction of rat aortas induced by potassium depolarisation. Details: species or system WISTAR rats. Particulars: 0.25 h, hyperpotassic medium (80 mM KCl, 37 mM NaCl), cumulative concentrations every 15 minutes, 37° C., read-out: Concentration inhibiting by 50% (IC50) the contraction of rat aortas induced by potassium depolarisation. The protocol: (§1) The studies are carried out on rings, having a length of 3 mm, of aortas removed from WISTAR rats (325-375 g) which have been anaesthetised with sodium pentobarbital (30 mg/kg i.p.); or of aortas removed from New Zealand rabbits (1.8-2 kg) which have likewise been anaesthetised with sodium pentobarbital (30 mg/kg i.p.).
(§2) The vascular rings are immersed in a physiological solution, normal or calcium-free (+0.2 mM of EGTA chelator), which is kept at a temperature of 37° C. and aerated with a mixture of 95% O2 +5% CO2. The rings are connected to a STATHAM (UC2-GOULD) tension sensor. The optimum tensions for each vessel are applied and a stabilisation period of 90 minutes for the specimens is observed.
Table (T1) summarises the IC50s obtained with the compounds of the Examples representing the compounds of the invention, with regard to the contraction of rat aortas induced by a hyperpotassic medium.

Another assay deals with rabbit aortas. Kind of assay: Anti-vasoconstrictive activity in calcium-free medium: contraction of rabbit aortas induced by noradrenaline. Details: species or system New Zealand rabbits. Conditions: Oryctolagus cuniculus, 0.5 h, 30 minutes incubation, noradrenaline 10^-6 M, calcium-free (+0.2 mM EGTA); for inhibition at 1 µM: 10^-6 M compound; for inhibition at 0.1 µM: 10^-7 M compound. The protocol:
as §1, §2
The inhibitory effect of a concentration of the compounds of the invention incubated for 30 minutes, with regard to vascular contraction induced by nonadrenaline (10^-6 M), is tested.

The subject of assay [1] is left auricle of guinea-pigs. Nature of the assay: Effect on the toxic effects of ouabain on the left auricle of guinea-pigs. Conditions: compound 10^-5 M, ouabain 10^-6 M; for % contracture: percentage of the initial contraction developed. The protocol: The left auricles are removed from guinea-pigs (350-450 g) which have been anaesthetised with sodium pentobarbital (30 mg/kg). The auricles are attached to a STATHAM (UC2-GOULD) tension sensor and the initial tension applied is 0.5 grammes. The auricles are stimulated electrically at 1 Hz by means of platinum electrodes.
Toxic effect is achieved by the addition of ouabain (10^-6 M). The test compounds are added 15 minutes prior to the addition of the toxic agent.

Another assay has as its system isolated rat's heart. Nature of the assay: Protective effect on an isolated rat's heart subjected to hypoxia-reoxygenation. Also noted: species or system WISTAR rats. Conditions: compound 8·10^-7 M, solvent H2O; for % PVG at 30 min DE REOXYGENATION: 30 min reoxygenation after 60 min hypoxia. The procedure:
The heart is removed from WISTAR rats (325-375 g). The heart is perfused rapidly according to the technique of LANGENDORFF at a constant pressure of 76 mmHg and is stimulated electrically at 5 Hz.
The heart is subjected to hypoxia for 60 minutes, which is effected by the administration of a gaseous mixture of 95% N2 +5% CO2 during that period, and is followed by reoxygenation for 30 minutes.
The test compounds are incubated for 15 minutes prior to and for the duration of the hypoxia.
The isovolumetric contractions are recorded by means of a polyethylene balloon connected to a pressure sensor (P23-GOULD) introduced into the left ventricle and inflated so as to obtain a diastolic pressure of between 5 and 10 mm of mercury.

Usually inhibition stands for how much of the control response was suppressed. On to `CN(CCCCOc1ccc(F)cc1)C1CCN(S(=O)(=O)c2cccc3cnccc23)CC1` [Example 1, Fumarate of 1-(isoquinolin-5-ylsulphonyl)-4-{N-methyl-N-[4-(p-fluorophenoxy)butyl]amino}piperidine], for which the IC50 in the assay on rat aortas turned out to be 9.2 µM. Moreover, the inhibition at 1 µM in the assay on rabbit aortas was 62%. In addition, the “% contraction” value in assay [1] (10 min, solvent DMSO) was found to be 254.7 ± 22%; in assay [1] (30 min, solvent DMSO), 260.6 ± 29%; in assay [1] (60 min, solvent DMSO), 253.6 ± 26%. The “% contracture” value in assay [1] (15 min, solvent DMSO) was 0%; in assay [1] (30 min, solvent DMSO) it was 0%; in assay [1] (60 min, solvent DMSO), 4 ± 4%.

For the molecule `CN(CCCC(=O)c1ccc(F)cc1)C1CCN(S(=O)(=O)c2cccc3cnccc23)CC1` [Example 2, Dihydrochloride of 1-(isoquinolin-5-ylsulphonyl)-4-{N-methyl-N-[4-oxo-4-(p-fluorophenyl)butyl]amino}piperidine], the IC50 with rat aortas is 3.3 µM. Also, in the assay on rabbit aortas, the inhibition at 1 µM was determined as 86% and the inhibition at 0.1 µM was 50%. Also, the “% contraction” value in assay [1] (10 min, solvent H2O) stood at 184.0 ± 17.3%. In assay [1] (15 min, solvent H2O), the “% contracture” value worked out at 1.4 ± 1.4%. For the same molecule, in assay [1] (30 min, solvent H2O), the “% contraction” value came to 138.8 ± 34.9% and the “% contracture” value came to 10.5 ± 4.7%. Also, in assay [1] (60 min, solvent H2O), the “% contraction” value is given as 112.2 ± 31.0% and the “% contracture” value was found to be 33.5 ± 16.4%. Besides, in the assay with isolated rat's heart, the “Contracture amplitude at 15 min reoxygenation” value was 5.5 ± 4.3 mmHg, the “% PVG at 30 min DE REOXYGENATION” value was 95.0 ± 1.9% and the “Contracture amplitude at 30 min reoxygenation” value turned out to be 0.5 ± 0.5 mmHg.

With `CN(CCCOc1ccc(F)cc1)CC1CCN(S(=O)(=O)c2cccc3cnccc23)CC1` [Example 3, Fumarate of 1-(isoquinolin-5-ylsulphonyl)-4-{{N-methyl-N-[3-(p-fluorophenoxy)propyl]amino}methyl}piperidine], in the assay on rat aortas, the IC50 was 1.5 µM. In the assay on rabbit aortas, the inhibition at 1 µM worked out at 82% and the inhibition at 0.1 µM was 43%. The “% contraction” value in assay [1] (10 min, solvent H2O) came out at 183.3 ± 20.7%. Also, the “% contracture” value in assay [1] (15 min, solvent H2O) is listed as 0.9 ± 0.9%. In addition, in assay [1] (30 min, solvent H2O), the “% contraction” value stood at 155.4 ± 15.0% and the “% contracture” value was 7.7 ± 1.5%. Besides, in assay [1] (60 min, solvent H2O), the “% contraction” value came out at 130.7 ± 34.5% and the “% contracture” value was 21.8 ± 6.2%. In the assay with isolated rat's heart, the “Contracture amplitude at 15 min reoxygenation” value is on record as 9.6 ± 2.4 mmHg, the “% PVG at 30 min DE REOXYGENATION” value came out at 85.4 ± 5.8% and the “Contracture amplitude at 30 min reoxygenation” value was 1.6 ± 1.0 mmHg.

With `CN(CCCCCOc1ccc(F)cc1)C1CCN(S(=O)(=O)c2cccc3cnccc23)CC1` [Example 4, Fumarate of 1-(isoquinolin-5-ylsulphonyl)-4 {N-methyl N-[5-(p-fluorophenoxy)pentyl]amino}piperidine], the “% contraction” value in assay [1] (10 min, solvent DMSO) turned out to be 213.9 ± 22%; in assay [1] (30 min, solvent DMSO) it was 208.6 ± 22%; in assay [1] (60 min, solvent DMSO) it was 211.1 ± 30%. Also, the “% contracture” value came to 0% in assay [1] (15 min, solvent DMSO); 0% in assay [1] (30 min, solvent DMSO); 0% in assay [1] (60 min, solvent DMSO).

On to `CN(CCCC(=O)c1ccc(F)cc1)CC1CCN(S(=O)(=O)c2cccc3cnccc23)CC1` [Example 5, Dihydrochloride of 1-(isoquinolin-5-ylsulphonyl)-4-{N-methyl-N-[4-(p-fluorophenyl)-4-oxobutyl]aminomethyl}piperidine], for which the “% contraction” value was 206.1 ± 21% in assay [1] (10 min, solvent H2O); 186.1 ± 21.2% in assay [1] (30 min, solvent H2O); 141.3 ± 25.3% in assay [1] (60 min, solvent H2O). Also, the “% contracture” value in assay [1] (15 min, solvent H2O) worked out at 0%; in assay [1] (30 min, solvent H2O) it was 2.8 ± 2.1%; in assay [1] (60 min, solvent H2O), 16.5 ± 9.5%.
